Laboratory results: US20250340538A1, “IMIDAZOLONE DERIVATIVES AS INHIBITORS OF PROTEIN KINASES IN PARTICULAR DYRK1A, CLK1 AND/OR CLK4” (PERHA PHARMACEUTICALS, priority 2021, published 2025)
Like-named read-outs stand apart in the source and are kept apart here.

Experiments:
Assay type in all cases: biochemical
[1] = biological target: T1, DYRK1B (Homo sapiens, UniProt Q9Y463); assay: Radiometric protein kinase assay (33PanQinase Activity Assay), DYRK1B; details: read-out: IC50 on DYRK1B (most potent DYRK1B inhibitors)
T1 construct: GST-fusion or His-tag (not specified per kinase); purchased ProQinase GmbH; host or cells: Sf9 insect cells or E. coli (not specified per kinase)
T1 sequence (Q9Y463 whole entry, the tested form may be a part): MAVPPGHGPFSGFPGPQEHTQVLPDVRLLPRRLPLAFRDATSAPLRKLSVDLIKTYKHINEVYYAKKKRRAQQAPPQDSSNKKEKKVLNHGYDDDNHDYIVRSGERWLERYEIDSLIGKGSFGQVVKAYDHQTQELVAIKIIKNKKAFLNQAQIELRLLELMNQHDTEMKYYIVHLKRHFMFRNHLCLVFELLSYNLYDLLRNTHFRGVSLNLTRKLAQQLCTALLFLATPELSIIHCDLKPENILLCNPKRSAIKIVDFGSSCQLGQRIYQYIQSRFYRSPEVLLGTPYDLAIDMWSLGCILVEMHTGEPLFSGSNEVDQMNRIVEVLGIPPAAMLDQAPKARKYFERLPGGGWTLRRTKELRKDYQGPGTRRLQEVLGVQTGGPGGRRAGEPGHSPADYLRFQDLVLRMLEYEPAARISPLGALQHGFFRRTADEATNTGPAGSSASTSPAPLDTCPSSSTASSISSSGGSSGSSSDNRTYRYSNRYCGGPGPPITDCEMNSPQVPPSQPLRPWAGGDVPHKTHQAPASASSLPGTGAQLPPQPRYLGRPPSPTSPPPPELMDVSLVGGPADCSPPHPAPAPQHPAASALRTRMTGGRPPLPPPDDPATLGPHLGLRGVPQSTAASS
Protocol: (§1) Assays were performed by ProQinase GmbH (Engesserstr. 4, D-79108 Freiburg, Germany. www.proqinase.com). The IC50 profile of all compounds was determined using 12 protein kinases (CDK2/cyclin E, CK1ε, CLK1, 2, 3, 4, DYRK1A, 1B, 2, 3, 4, GSK3β).
(§2) The compounds were provided as […] in 100% DMSO. Prior to testing, the 1 μM stock solutions were subjected to a serial, semi-logarithmic dilution using 100% DMSO as a solvent. […] In the process, 90 μl H2O were added to each well of each compound dilution plate. To minimize potential precipitation, the H2O was added to each plate only a few minutes before the transfer of the compound solutions into the assay plates. The plate was shaken thoroughly, resulting in a compound dilution plate/10% DMSO.
(§3) For the assays (see below), 5 μL solution from each well of the compound dilution plates/10% DMSO were transferred into the assay plates. The final volume of the assay was 50 μL. All compounds were tested at 10 final assay concentrations in the range from 10 μM to 30 nM. The final DMSO concentration in the reaction cocktails was 1% in all cases.
(§4) All protein kinases provided by ProQinase were expressed in Sf9 insect cells or in E. coli as recombinant GST-fusion proteins or His-tagged proteins, either as full-length or enzymatically active fragments. All kinases were produced from human cDNAs and purified by either GSH-affinity chromatography or immobilized metal. Affinity tags were removed from a number of kinases during purification. The purity of the protein kinases was examined by SDS-PAGE/Coomassie staining, the identity was checked by mass spectroscopy.
(§5) A radiometric protein kinase assay (33PanQinase® Activity Assay) was used for measuring the kinase activity of the 12 protein kinases. All kinase assays were performed in 96-well FlashPlates™ from PerkinElmer (Boston, MA, USA) in a 50 μL reaction volume. The reaction cocktail was pipetted in four steps in the following order: • 25 μL of assay buffer (standard buffer/[γ-^33P]-ATP), • 10 μL of ATP solution (in H2O), • 5 μL of test compound (in 10% DMSO), • 10 μL of enzyme/substrate mixture.
(§6) The reaction cocktails were incubated at 30° C. for 60 minutes. The reaction was stopped with 50 μL of 2% (v/v) H3PO4, plates were aspirated and washed two times with 200 μL 0.9% (w/v) NaCl. Incorporation of ^33Pi was determined with a microplate scintillation counter (Microbeta, Wallac). The IC50 values for all compounds were calculated from the dose response curves
(§7) As a parameter for assay quality, the Z′-factor (Zhang et al., J. Biomol. Screen. 2: 67-73, 1999) for the low and high controls of each assay plate (n=8) was used. ProQinase's criterion for repetition of an assay plate is a Z′-factor below 0.4 (Iversen et al., J. Biomol. Screen. 3: 247-252, 2006).

[2] = biological target: T2, DYRK2 (Homo sapiens, UniProt Q92630); assay: Radiometric protein kinase assay (33PanQinase Activity Assay), DYRK2; details: read-out: IC50 on DYRK2 (most potent DYRK2 inhibitors)
T2 construct: GST-fusion or His-tag (not specified per kinase); purchased ProQinase GmbH; host or cells: Sf9 insect cells or E. coli (not specified per kinase)
T2 sequence (Q92630 1-601): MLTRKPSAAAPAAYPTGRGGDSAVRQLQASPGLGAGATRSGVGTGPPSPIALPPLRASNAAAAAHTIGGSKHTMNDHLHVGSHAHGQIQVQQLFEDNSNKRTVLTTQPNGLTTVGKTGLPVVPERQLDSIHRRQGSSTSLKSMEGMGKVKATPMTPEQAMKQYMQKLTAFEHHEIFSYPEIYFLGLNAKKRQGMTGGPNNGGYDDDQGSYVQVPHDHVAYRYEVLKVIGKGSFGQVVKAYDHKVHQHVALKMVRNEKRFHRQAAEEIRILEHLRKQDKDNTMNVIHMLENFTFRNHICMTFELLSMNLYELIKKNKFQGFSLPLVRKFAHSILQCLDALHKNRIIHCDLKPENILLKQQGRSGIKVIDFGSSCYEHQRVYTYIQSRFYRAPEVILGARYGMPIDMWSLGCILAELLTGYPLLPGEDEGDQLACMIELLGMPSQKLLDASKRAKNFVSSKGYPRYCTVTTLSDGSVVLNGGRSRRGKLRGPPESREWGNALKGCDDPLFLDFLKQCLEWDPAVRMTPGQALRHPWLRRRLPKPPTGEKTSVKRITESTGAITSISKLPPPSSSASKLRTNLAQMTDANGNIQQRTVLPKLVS
Protocol: as §1, §2, §3, §4, §5, §6, §7

[3] = biological target: T3, DYRK3 (Homo sapiens, UniProt O43781); assay: Radiometric protein kinase assay (33PanQinase Activity Assay), DYRK3; details: read-out: IC50 on DYRK3 (most potent DYRK3 inhibitors)
T3 construct: GST-fusion or His-tag (not specified per kinase); purchased ProQinase GmbH; host or cells: Sf9 insect cells or E. coli (not specified per kinase)
T3 sequence (O43781 1-588): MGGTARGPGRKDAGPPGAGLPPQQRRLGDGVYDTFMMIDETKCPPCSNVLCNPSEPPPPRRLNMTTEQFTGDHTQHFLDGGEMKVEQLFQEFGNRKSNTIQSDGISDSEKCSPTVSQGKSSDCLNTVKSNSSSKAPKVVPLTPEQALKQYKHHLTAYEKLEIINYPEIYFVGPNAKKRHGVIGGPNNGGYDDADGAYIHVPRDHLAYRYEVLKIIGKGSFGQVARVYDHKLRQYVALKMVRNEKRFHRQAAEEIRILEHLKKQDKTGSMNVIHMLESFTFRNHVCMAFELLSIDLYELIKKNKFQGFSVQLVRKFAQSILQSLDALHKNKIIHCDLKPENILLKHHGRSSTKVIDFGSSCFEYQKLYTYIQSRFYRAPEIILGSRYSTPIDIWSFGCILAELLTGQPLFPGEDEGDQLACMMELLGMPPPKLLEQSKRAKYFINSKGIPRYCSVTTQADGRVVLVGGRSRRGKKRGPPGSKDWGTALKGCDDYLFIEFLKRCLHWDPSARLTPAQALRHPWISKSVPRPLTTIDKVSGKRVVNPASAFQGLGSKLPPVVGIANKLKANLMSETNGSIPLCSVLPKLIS
Protocol: as §1, §2, §3, §4, §5, §6, §7

[4] = biological target: T4, CLK4 (Homo sapiens, UniProt Q9HAZ1); assay: Radiometric protein kinase assay (33PanQinase Activity Assay), CLK4; details: read-out: IC50 on CLK4 (most potent CLK4 inhibitors)
T4 construct: GST-fusion or His-tag (not specified per kinase); purchased ProQinase GmbH; host or cells: Sf9 insect cells or E. coli (not specified per kinase)
T4 sequence (Q9HAZ1 whole entry, the tested form may be a part): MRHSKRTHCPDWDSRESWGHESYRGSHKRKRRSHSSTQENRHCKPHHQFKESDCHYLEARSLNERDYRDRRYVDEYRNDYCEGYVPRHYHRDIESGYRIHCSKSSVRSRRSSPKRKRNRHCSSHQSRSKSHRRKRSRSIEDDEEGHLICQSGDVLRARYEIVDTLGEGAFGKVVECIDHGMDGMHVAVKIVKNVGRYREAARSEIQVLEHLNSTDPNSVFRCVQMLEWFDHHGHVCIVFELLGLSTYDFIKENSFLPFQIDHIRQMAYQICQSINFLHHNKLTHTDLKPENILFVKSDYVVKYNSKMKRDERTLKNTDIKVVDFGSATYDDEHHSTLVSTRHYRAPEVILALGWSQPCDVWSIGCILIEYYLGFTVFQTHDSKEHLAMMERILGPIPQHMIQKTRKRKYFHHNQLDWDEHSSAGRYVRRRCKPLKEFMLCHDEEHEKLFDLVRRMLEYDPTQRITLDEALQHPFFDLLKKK
Protocol: as §1, §2, §3, §4, §5, §6, §7

[5] = biological target: T5, DYRK1A (Homo sapiens, UniProt Q13627); assay: Radiometric protein kinase assay (33PanQinase Activity Assay), DYRK1A; details: for Selectivity Class DYRK1A vs. CLK1: ratio of IC50 on CLK1 over IC50 on DYRK1A; for Selectivity Class DYRK1A vs. DYRK1B: ratio of IC50 on DYRK1B over IC50 on DYRK1A
T5 construct: GST-fusion or His-tag (not specified per kinase); purchased ProQinase GmbH; host or cells: Sf9 insect cells or E. coli (not specified per kinase)
In short: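 Recombinant human kinase, expressed in Sf9 or E. coli, in a radiometric [γ-33P]-ATP assay at 30 °C for 60 min. Compounds tested at 10 concentrations from 10 μM to 30 nM, 1% DMSO final. 33Pi incorporation measured by scintillation counting; IC50 from dose-response curves.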

[6] = biological target: T6, CLK1 (Homo sapiens, UniProt P49759); assay: Radiometric protein kinase assay (33PanQinase Activity Assay), CLK1
T6 construct: GST-fusion or His-tag (not specified per kinase); purchased ProQinase GmbH; host or cells: Sf9 insect cells or E. coli (not specified per kinase)
T6 sequence (P49759 whole entry, the tested form may be a part): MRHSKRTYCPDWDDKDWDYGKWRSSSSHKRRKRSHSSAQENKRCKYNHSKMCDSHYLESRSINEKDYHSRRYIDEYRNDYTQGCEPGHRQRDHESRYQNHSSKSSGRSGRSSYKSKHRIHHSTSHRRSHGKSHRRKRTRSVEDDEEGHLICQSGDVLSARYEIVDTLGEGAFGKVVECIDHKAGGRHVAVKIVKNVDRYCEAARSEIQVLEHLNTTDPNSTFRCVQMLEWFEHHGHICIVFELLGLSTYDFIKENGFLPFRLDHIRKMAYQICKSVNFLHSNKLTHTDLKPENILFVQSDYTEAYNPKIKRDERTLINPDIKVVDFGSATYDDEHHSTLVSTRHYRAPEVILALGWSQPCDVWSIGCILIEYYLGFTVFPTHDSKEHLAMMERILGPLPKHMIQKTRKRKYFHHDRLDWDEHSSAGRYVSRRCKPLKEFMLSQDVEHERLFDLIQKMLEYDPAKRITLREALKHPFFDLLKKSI
In short: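 Human kinase (Sf9- or E. coli-expressed, tagged, purified) + substrate + [γ-33P]-ATP; cpd 10 μM→30 nM, 10 pts, 1% DMSO; 30 °C, 60 min; H3PO4 stop; scintillation count; IC50 from curve.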

[7] = biological target: T7, CLK2 (Homo sapiens, UniProt P49760); assay: Radiometric protein kinase assay (33PanQinase Activity Assay), CLK2; details: read-out: IC50 on CLK2 (most potent CLK2 inhibitors)
T7 construct: GST-fusion or His-tag (not specified per kinase); purchased ProQinase GmbH; host or cells: Sf9 insect cells or E. coli (not specified per kinase)
T7 sequence (P49760 whole entry, the tested form may be a part): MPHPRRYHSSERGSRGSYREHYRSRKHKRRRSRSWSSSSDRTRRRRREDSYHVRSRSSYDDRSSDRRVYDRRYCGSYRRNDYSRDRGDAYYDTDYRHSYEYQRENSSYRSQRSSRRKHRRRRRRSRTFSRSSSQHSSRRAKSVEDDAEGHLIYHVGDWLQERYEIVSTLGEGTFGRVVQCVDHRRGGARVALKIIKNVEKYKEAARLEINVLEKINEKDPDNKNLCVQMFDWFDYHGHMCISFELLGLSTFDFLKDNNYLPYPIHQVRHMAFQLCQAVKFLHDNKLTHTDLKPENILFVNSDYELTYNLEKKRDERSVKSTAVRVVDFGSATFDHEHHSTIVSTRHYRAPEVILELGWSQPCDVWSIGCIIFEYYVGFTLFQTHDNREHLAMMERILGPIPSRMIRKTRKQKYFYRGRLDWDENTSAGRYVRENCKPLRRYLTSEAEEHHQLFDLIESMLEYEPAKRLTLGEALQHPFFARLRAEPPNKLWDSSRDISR
Protocol: as §1, §2, §3, §4, §5, §6, §7

[8] = biological target: T8, CLK3 (Homo sapiens, UniProt P49761); assay: Radiometric protein kinase assay (33PanQinase Activity Assay), CLK3; details: read-out: IC50 on CLK3 (most potent CLK3 inhibitors)
T8 construct: GST-fusion or His-tag (not specified per kinase); purchased ProQinase GmbH; host or cells: Sf9 insect cells or E. coli (not specified per kinase)
T8 sequence (P49761 whole entry, the tested form may be a part): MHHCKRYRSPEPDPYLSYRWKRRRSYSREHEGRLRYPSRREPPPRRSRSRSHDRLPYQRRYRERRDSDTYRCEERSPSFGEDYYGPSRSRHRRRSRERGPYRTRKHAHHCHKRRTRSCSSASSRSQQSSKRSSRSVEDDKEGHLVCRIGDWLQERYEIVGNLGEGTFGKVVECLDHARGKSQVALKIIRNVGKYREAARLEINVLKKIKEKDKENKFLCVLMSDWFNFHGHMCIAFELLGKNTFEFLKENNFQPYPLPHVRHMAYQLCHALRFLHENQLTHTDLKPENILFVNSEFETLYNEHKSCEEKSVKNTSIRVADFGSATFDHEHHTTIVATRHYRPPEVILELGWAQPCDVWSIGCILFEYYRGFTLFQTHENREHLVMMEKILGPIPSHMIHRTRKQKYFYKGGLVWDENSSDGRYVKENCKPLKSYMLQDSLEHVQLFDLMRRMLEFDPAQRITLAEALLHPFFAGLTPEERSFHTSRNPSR
Protocol: as §1, §2, §3, §4, §5, §6, §7

[9] = IC50 class A to E, read-out: Potency Class DYRK1A
[10] = class by IC50 on DYRK1A, from dose-response curves, read-out: Potency Class DYRK1A
[11] = read-out: IC50 on DYRK1A (most potent DYRK1A inhibitors)
[12] = IC50 class A to E, read-out: Potency Class CLK1
[13] = class by IC50 on CLK1, from dose-response curves, read-out: Potency Class CLK1
[14] = read-out: IC50 on CLK1 (most potent CLK1 inhibitors)

IC50 [1]	IC50 [2]	IC50 [3]	IC50 [4]	IC50 [5, 9]	IC50 [5, 10]	Selectivity Class DYRK1A vs. CLK1 [5]	Selectivity Class DYRK1A vs. DYRK1B [5]	IC50 [5, 11]	IC50 [6, 12]	IC50 [6, 13]	IC50 [6, 14]	IC50 [7]	IC50 [8]	SMILES
≤ 10 nM	≤ 250 nM	≤ 250 nM	≤ 10 nM	≤ 5 nM	< 5 nM	II (ratio between 2 and 10 fold)	III (ratio between 0.5 and 2 fold)	≤ 10 nM	10 to 25 nM	10 to 25 nM	≤ 10 nM	≤ 100 nM	–	O=C1NC(NC23CC4CC(CC(F)(C4)C2)C3)=N/C1=C\c1ccc2nccnc2c1 [Compound 20, (4Z)-2-[(3-fluoro-1-adamantyl)amino]-4-(quinoxalin-6-ylmethylene)-1H-imidazol-5-one]
–	–	–	–	–	> 50 nM	III (ratio between 0.5 and 2 fold)	III (ratio between 0.5 and 2 fold)	–	–	> 50 nM	–	–	≤ 500 nM	COC[C@@H](CC(C)C)NC1=N/C(=C\c2ccc3ncccc3n2)C(=O)N1 [Compound 81, (4Z)-2-[[(1R)-1-(methoxymethyl)-3-methyl-butyl]amino]-4-(1,5-naphthyridin-2-ylmethylene)-1H-imidazol-5-one]
≤ 10 nM	–	≤ 250 nM	≤ 10 nM	≤ 5 nM	< 5 nM	II (ratio between 2 and 10 fold)	II (ratio between 2 and 10 fold)	≤ 10 nM	5 to 10 nM	5 to 10 nM	≤ 10 nM	≤ 100 nM	≤ 500 nM	O=C1NC(NC23CC4CC(CC(C4)C2)C3)=N/C1=C\c1ccc2ncccc2n1 [Compound 70, (4Z)-2-(1-adamantylamino)-4-(1,5-naphthyridin-2-ylmethylene)-1H-imidazol-5-one]
≤ 10 nM	–	–	≤ 10 nM	≤ 5 nM	< 5 nM	II (ratio between 2 and 10 fold)	II (ratio between 2 and 10 fold)	≤ 10 nM	10 to 25 nM	10 to 25 nM	–	–	–	O=C1NC(NC23CC4CC(CC(O)(C4)C2)C3)=N/C1=C\c1ccc2nccnc2c1 [Compound 18, (4Z)-2-[(3-hydroxy-1-adamantyl)amino]-4-(quinoxalin-6-ylmethylene)-1H-imidazol-5-one]
≤ 10 nM	≤ 250 nM	≤ 250 nM	≤ 10 nM	≤ 5 nM	< 5 nM	II (ratio between 2 and 10 fold)	II (ratio between 2 and 10 fold)	≤ 10 nM	10 to 25 nM	10 to 25 nM	–	≤ 100 nM	–	COC[C@H](NC1=N/C(=C\c2ccc3ncncc3c2)C(=O)N1)c1ccccc1 [Compound 69, (4Z)-2-[[(1R)-2-methoxy-1-phenyl-ethyl]amino]-4-(quinazolin-6-ylmethylene)-1H-imidazol-5-one]
–	–	≤ 250 nM	≤ 10 nM	–	25 to 50 nM	III (ratio between 0.5 and 2 fold)	III (ratio between 0.5 and 2 fold)	–	–	25 to 50 nM	–	–	≤ 500 nM	O=C1NC(NC2CCCCC2)=N/C1=C\c1ccc2ncccc2n1 [Compound 79, (4Z)-2-(cyclohexylamino)-4-(1,5-naphthyridin-2-ylmethylene)-1H-imidazol-5-one]
≤ 10 nM	≤ 250 nM	–	≤ 10 nM	≤ 5 nM	< 5 nM	II (ratio between 2 and 10 fold)	II (ratio between 2 and 10 fold)	≤ 10 nM	10 to 25 nM	10 to 25 nM	–	≤ 100 nM	–	COC12CC3CC(CC(NC4=N/C(=C\c5ccc6nccnc6c5)C(=O)N4)(C3)C1)C2 [Compound 19, (4Z)-2-[(3-methoxy-1-adamantyl)amino]-4-(quinoxalin-6-ylmethylene)-1H-imidazol-5-one]
–	–	–	–	–	10 to 25 nM	III (ratio between 0.5 and 2 fold)	II (ratio between 2 and 10 fold)	–	–	25 to 50 nM	–	–	≤ 500 nM	O=C1NC(NC2CCCCCC2)=N/C1=C\c1ccc2ncccc2n1 [Compound 80, (4Z)-2-(cycloheptylamino)-4-(1,5-naphthyridin-2-ylmethylene)-1H-imidazol-5-one]
